From US20240317683A1, “METHODS OF TREATING MOOD DISORDERS” (priority 2020, published 2024)

Columns and labels:
[1] = Metabolic stability in human liver microsomes (HLM); type: in vitro ADME; details: both sexes, pooled human liver microsomes, pH 7.4, NADPH
Procedure: (§1) HLM Stability. Pooled HLM from adult male and female donors (Corning 452117) were used. Microsomal incubations were carried out in multi-well plates. […] Control incubations were performed by replacing the NADPH-cofactor system with PBS. Test compounds (1 μM, final solvent concentration 1.0%) were incubated with microsomes at 37° C. with constant shaking. Six time points over 60 minutes were analyzed, with 60 μL aliquots of the reaction mixture being drawn at each time point.

[2] = Metabolic stability in mouse liver microsomes (MLM); type: in vitro ADME, CD-1 mice; details: CD-1, mouse, pooled mouse liver microsomes, pH 7.4, NADPH
Procedure: as §1, with “MLM” for “HLM”, “CD-1 mice (BIOIVT M00501)” for “adult male and female donors (Corning 452117)”

[3] = target: serotonin transporter (SERT) (Homo sapiens (Human), UniProt P31645); test: SERT fluorescent substrate uptake inhibition in transfected HEK293 cells; type: cell-based; details: HEK293 cells expressing SERT
Procedure: SERT Uptake Inhibition. The ability of test compounds to block monoamine uptake by SERT was determined using the Neurotransmitter Transporter Uptake Assay Kit manufactured by Molecular Devices (Cat #R8173). Briefly, stably transfected HEK293 cells expressing SERT were grown and plated into 384-well plates at a concentration of 20,000 cells per well. Plates were then incubated for 16-20 h at 37° C. and 5% CO2. The medium was then aspirated and replaced with 25 μL of assay buffer (20 mM HEPES in HBSS, containing 0.1% BSA) containing the test compounds at the appropriate concentrations. Plates were then centrifuged at 300 rpm for 15 s and then incubated at 37° C. for 30 minutes. At this time, 25 μL of the proprietary fluorescent dye solution was added, the plates were incubated at 37°° C. for 60 minutes, and then fluorescence was quantified on a plate reader (excitation wavelength =440 nm, emission wavelength=520 nm). The proprietary dye solution contains a mixture of 1) a fluorescent dye (dye 1) that mimics the endogenous substrate of SERT and is thereby actively transported to the intracellular compartment in the absence of an inhibitor and 2) a masking dye that inhibits the fluorescence of dye 1 in the extracellular compartment. Therefore, the overall fluorescence of the system increases as the fluorescent dye is transported into the cells.

[4] = Metabolic stability in rat liver microsomes (RLM); type: in vitro ADME; details: both sexes, pooled rat liver microsomes, pH 7.4, NADPH
Procedure: as §1, with “RLM” for “HLM”, “(Xenotech R1000)” for “(Corning 452117)”

[5] = tested on: monoamine oxidase A and B (MAO-A and MAO-B); test: Stability in the presence of monoamine oxidases (human liver mitochondria); type: in vitro ADME
Procedure: Liver Mitochondria Incubations. Human liver mitochondria (Xenotech H0610.M) were used. Mitochondrial incubations were carried out in multi-well plates. […] Six time points over 60 minutes were analyzed.

5-HT2B = 5-HT2B (Homo sapiens (Human), UniProt P41595); test: FLIPR Ca2+ flux agonist assay, 5-HT2B; type: cell-based; details: Ca2+ flux, HEK293
Procedure: (§2) A solution of 250 mM probenecid in 1 mL FLIPR assay buffer was prepared fresh. This was combined with a fluorescent dye (Fluo-4 Direct™) to make a final assay concentration of 2.5 mM. […] The fluorescent dye was then added to the assay plate along with assay buffer to a final volume of 40 μL. The cell plate was incubated for 50 min at 37° C. and 5% CO2 and placed into the FLIPR Tetra along with the compound plate. 10 μL of references and compounds were then transferred from the compound plate into the cell plate and the fluorescent signal was read.

5-HT2A = 5-HT2A (Homo sapiens (Human), UniProt P28223); test: FLIPR Ca2+ flux agonist assay, 5-HT2A; type: cell-based; details: HEK293
Procedure: as §2

[6] = Stability in rat brain homogenate; type: in vitro ADME, Sprague Dawley rats
Procedure: Rat Brain Homogenate Stability. Frozen rat brain homogenate (pooled from male Sprague Dawley rats, BioreclamationIVT, RATOOBRAINMZA) was thawed in a water bath at 37° C. immediately prior to use. Positive controls and test compounds (final concentration in incubation medium=1 μM for test compounds and 2 μM for controls, all with 2% DMSO) were incubated in duplicate for each time point (0, 10, 30, 60, and 120 min) in the rat brain homogenate at a total reaction volume of 100 μL at 37° C. At the end of each incubation period, reactions were immediately quenched with 400 μL of acetonitrile containing internal standard (200 ng/ml tolbutamine and 200 ng/ml labetalol) and mixed thoroughly. Plates were then sealed, shaken for 20 min, and centrifuged at 4,000 rpm and 4° C. for 20 min. Aliquots of 50 μL of each supernatant were diluted into 100 uL of water and the mixtures were then shaken again for 10 min.

[7] = Stability in mouse brain homogenate; type: in vitro ADME, CD-1 mice
Procedure: Mouse Brain Homogenate Stability. Frozen mouse brain homogenate (pooled from male CD-1 mice, BioreclamationIVT, MSE00BRAINMZA) was thawed in a water bath at 37° C. immediately prior to use. Positive controls and test compounds (final concentration in incubation medium=1 μM for test compounds and 2 μM for controls, all with 2% DMSO) were incubated in duplicate for each time point (0, 10, 30, 60, and 120 min) in the mouse brain homogenate at a total reaction volume of […] at 37° C. At the end of each incubation period, reactions were immediately quenched with 400 μL of acetonitrile containing internal standard (200 ng/mL tolbutamine and 200 ng/ml labetalol) and mixed thoroughly. Plates were then sealed, shaken for 20 min, and centrifuged at 4,000 rpm and 4° C. for 20 min. Aliquots of 50 μL of each supernatant were diluted into 100 μL of water and the mixtures were then shaken again for 10 min.

5-HT1A = 5-HT1A (Homo sapiens (Human), UniProt P08908); test: FLIPR Ca2+ flux agonist assay, 5-HT1A; type: cell-based; details: Ca2+ flux, CHO cells
Procedure: as §2

C57BL/6 mice = test: Head twitch response (HTR) in mice; type: in vivo
Procedure: Animals. Adult male C57BL/6 mice, aged 8 weeks (body weight 20-25 g) were used in these experiments. Animals were housed under controlled temperatures and 12-hour light/dark cycles (lights on between 07:00-19:00 h), with ad libitum food and water. The protocol was approved by the Eurofins Advinus Institutional Animal Care and Use Committee. This study was carried out in strict accordance with the recommendations in the Guide for the Care and Use of Laboratory Animals of the National Institutes of Health. All efforts were made to minimize suffering.
Drugs and Drug administration. Compounds 3 and 4 were prepared as described above. All other compounds were commercially obtained. Test compounds were used as the hydrogen fumarate (1 and 2) or hydrochloride (DOI, 3, and 4) salts. Drugs were dissolved in a vehicle consisting of normal saline and administered subcutaneously (SC) in a volume of 10 ml/kg. Test compounds were administered at 5 doses per compound (0.1 to 100 mg/kg, as indicated, calculated based on the free base) using N=6 animals/group. […] For blockade experiments, MDL100907 (0.1 mg/kg, SC) was administered 10 mins prior to the test compound.
Procedure. Mice were administered one dose of a test drug (or vehicle) s.c. and immediately placed into a small open field for behavioral observation. Animals were observed continuously for 20 mins and the number of HTRs were counted by an observer blind to the treatment condition.
Statistical analysis. The data points shown in Table 11 are the mean ±standard error of the mean (SEM). Analysis was performed using GraphPad Prism 9.

[8] = human liver mitochondria, pH 7.4, human mitochondrial preparation, 1 μM

5-HT2B, sequence (P41595 whole entry, looked up, species assumed): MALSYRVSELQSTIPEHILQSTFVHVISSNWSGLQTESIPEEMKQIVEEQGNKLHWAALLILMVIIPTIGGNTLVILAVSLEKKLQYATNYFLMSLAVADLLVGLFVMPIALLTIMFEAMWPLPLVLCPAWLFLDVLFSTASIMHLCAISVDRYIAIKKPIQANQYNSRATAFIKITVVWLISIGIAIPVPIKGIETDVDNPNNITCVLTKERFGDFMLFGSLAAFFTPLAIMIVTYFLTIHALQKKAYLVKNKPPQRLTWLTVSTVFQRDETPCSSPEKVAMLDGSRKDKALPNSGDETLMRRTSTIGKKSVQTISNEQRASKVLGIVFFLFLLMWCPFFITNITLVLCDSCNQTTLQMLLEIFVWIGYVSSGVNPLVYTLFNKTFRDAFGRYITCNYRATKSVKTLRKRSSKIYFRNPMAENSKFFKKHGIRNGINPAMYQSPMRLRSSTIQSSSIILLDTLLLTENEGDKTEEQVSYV

COc1ccc2[nH]cc(CCN(C)C)c2c1 [Compound 5-MeO-DMT, 5-methoxy-N,N-dimethyltryptamine, reference compound]
half-life at 1 μM [1]: 13.6 min
half-life at 1 μM [2]: 48.8 min
microsomal CLint at 1 μM [2]: 28.4 µL/min/mg
IC50 [3]: 7.02 µM
SERT % Inhibition @ Max Dose [3]: 68.07%
half-life at 1 μM [4]: 14 min
microsomal CLint at 1 μM [4]: 98.8 µL/min/mg
MAO stability (in words) ([5]; human liver mitochondria preparation): highly metabolized
half-life at 1 μM [5, 8]: 52.9 min
microsomal CLint at 1 μM [5, 8]: 43.6 µL/min/mg
Remaining (t = 60 min) ([5]; human mitochondrial preparation, 1 μM, 60 min): 47.1%
5-HT2B % Act @ Max Dose (5-HT2B): 20.5%
5-HT2A % Act @ Max Dose (5-HT2A): 106%
stability in rat brain homogenate (in words) [6]: highly unstable
half-life at 1 μM ([6]; male, Sprague Dawley, rat brain homogenate, 1 μM, 37° C.): 14.4 min
% Compound Remaining (after 120 min) ([6]; rat brain homogenate, 1 μM, 37° C.): 0.3%
stability in mouse brain homogenate (in words) [7]: high stability
half-life at 1 μM ([7]; male, CD-1, mouse brain homogenate, 1 μM, 37° C.): > 289 min
% Compound Remaining (after 120 min) ([7]; mouse brain homogenate, 1 μM, 37° C.): 91.2%
5-HT1A % Act @ Max Dose (5-HT1A): 78.8%

COc1cccc([C@H](O)C2CCN(CCc3ccc(F)cc3)CC2)c1OC [MDL100907, reference compound]
blockade of the HTR induced by Compound 4 (C57BL/6 mice; pretreatment 0.1 mg/kg SC, 10 mins prior to Compound 4): completely blocked

COc1cc(CC(C)N)c(OC)cc1I (stereo not shown) [DOI, 4-iodo-2,5-dimethoxyamphetamine, reference compound]
maximal effect in HTR (C57BL/6 mice; SC, maximal over tested doses): 35.6 head twitches/20 min
